The target in test [1] is T1, recombinant human ACC2 (rhACC2) (Homo sapiens, UniProt O00763, V2141I).
T1 construct: a full length Cytomax clone of ACC2 was purchased from Cambridge Bioscience Limited; made in house; host or cells: CHO cells, tetracycline-induced (PcDNA5 FRT TO-TOPO)
The test is described as follows: recombinant hACC2 Transcreener ADP detection FP assay. The format is biochemical. The conditions noted are these: 50 μM ATP, 30 μM acetyl-CoA. As to the method:
(§1) For example direct inhibition of ACC activity, for the compound of Formula (I) was determined using preparations of recombinant human ACC1 (rhACC1) and recombinant human ACC2 (rhACC2). Representative sequences of the recombinant human ACC1 and ACC2 that can be used in the assay are provided herein as SEQ ID NO. 1 and SEQ. ID NO. 2, respectively.
[3] Preparation of rhACC2. Human ACC2 inhibition was measured using purified recombinant human ACC2 (hrACC2). Briefly, a full length Cytomax clone of ACC2 was purchased from Cambridge Bioscience Limited and was sequenced and subcloned into PcDNA5 FRT TO-TOPO (Invitrogen, Carlsbad, Calif.). The ACC2 was expressed in CHO cells by tetracycline induction and harvested in 5 liters of DMEM/F12 with glutamine, biotin, hygromycin and blasticidin with 1 μg/mL tetracycline (Invitrogen, Carlsbad, Calif.). The conditioned medium containing ACC2 was then applied to a Softlink Soft Release Avidin column (Promega, Madison, Wis.) and eluted with 5 mM biotin. 4 mgs of ACC2 were eluted at a concentration of 0.05 mg/mL (determined by A280) with an estimated purity of 95% ([…]). The purified ACC2 was dialyzed in 50 mM Tris, 200 mM NaCl, 4 mM DTT, 2 mM EDTA, and 5% glycerol. The pooled protein was frozen and stored at −80° C., with no loss of activity upon thawing. For measurement of ACC2 activity and assessment of ACC2 inhibition, test compounds were dissolved in DMSO and added to the rhACC2 enzyme as a 5× stock with a final DMSO concentration of 1%.
[4] Measurement of human ACC2 inhibition. hACC2 was assayed in a Costar #3676 (Costar, Cambridge, Mass.) 384-well plate using the Transcreener ADP detection FP assay kit (Bellbrook Labs, Madison, Wis.) using the manufacturer's recommended conditions for a 50 uM ATP reaction. The final conditions for the assay were 50 mM HEPES, pH 7.2, 5 mM MgCl2, 5 mM tripotassium citrate, 2 mM DTT, 0.1 mg/mL BSA, 30 μM acetyl-CoA, 50 μM ATP, and 8 mM KHCO3. Typically, a 10 μl reaction was run for 50 min at 25° C., and 10 μl of Transcreener stop and detect buffer was added and the combination incubated at room temp for an additional 1 hour. The data was acquired on an Envision Fluorescence reader (Perkinelmer) using a 620 excitation Cy5 FP general dual mirror, 620 excitation Cy5 FP filter, 688 emission (S) and a 688 (P) emission filter.
(§2) The results using the recombinant hACC1 and recombinant hACC2 Transcreener assays described above are summarized in the table below for the Compounds of Formula (I) exemplified in the Examples above.

The target of test [2] is T2, recombinant human ACC1 (rhACC1) (Homo sapiens, UniProt Q13085, DEL44-44).
T2 construct: recombinant baculovirus containing full length human ACC1 cDNA; made in house; host or cells: SF9 insect cells, recombinant baculovirus
The test is described as follows: recombinant hACC1 Transcreener ADP detection FP assay. Format: biochemical. The conditions noted are these: 50 μM ATP, 30 μM acetyl-CoA. As to the method:
as §1
[1] Preparation of rhACC1. Two liters of SF9 cells, infected with recombinant baculovirus containing full length human ACC1 cDNA, were suspended in ice-cold lysis buffer (25 mM Tris, pH 7.5; 150 mM NaCl; 10% glycerol; 5 mM imidazole (EMD Bioscience; Gibbstown, N.J.); 2 mM TCEP (BioVectra; Charlottetown, Canada); Benzonase nuclease (10000 U/100 g cell paste; Novagen; Madison, Wis.); EDTA-free protease inhibitor cocktail (1 tab/50 mL; Roche Diagnostics; Mannheim, Germany). Cells were lysed by 3 cycles of freeze-thaw and centrifuged at 40,000×g for 40 minutes (4° C.). Supernatant was directly loaded onto a HisTrap FF crude column (GE Healthcare; Piscataway, N.J.) and eluted with an imidazole gradient up to 0.5 M over 20 column volumes (CV). ACC1-containing fractions were pooled and diluted 1:5 with 25 mM Tris, pH 7.5, 2 mM TCEP, 10% glycerol and direct loaded onto a CaptoQ (GE Healthcare) column and eluted with an NaCl gradient up to 1 M over 20 CV's. Phosphate groups were removed from purified ACC1 by incubation with lambda phosphatase (100 U/10 μM target protein; New England Biolabs; Beverly, Mass.) for 14 hours at 4° C.; okadaic acid was added (1 μM final concentration; Roche Diagnostics) to inhibit the phosphatase. Purified ACC1 was exchanged into 25 mM Tris, pH 7.5, 2 mM TCEP, 10% glycerol, 0.5 M NaCl by 6 hour dialysis at 4° C. Aliquots were prepared and frozen at −80° C.
[2] Measurement of rhACC1 inhibition. hACC1 was assayed in a Costar #3676 (Costar, Cambridge, Mass.) 384-well plate using the Transcreener ADP detection FP assay kit (Bellbrook Labs, Madison, Wis.) using the manufacturer's recommended conditions for a 50 μM ATP reaction. The final conditions for the assay were 50 mM HEPES, pH 7.2, 10 mM MgCl2, 7.5 mM tripotassium citrate, 2 mM DTT, 0.1 mg/mL BSA, 30 μM acetyl-CoA, 50 μM ATP, and 10 mM KHCO3 Typically, a 10 μl reaction was run for 120 min at 25° C., and 10 μl of Transcreener stop and detect buffer was added and the combination incubated at room temp for an additional 1 hour. The data was acquired on a Envision Fluorescence reader (Perkinelmer) using a 620 excitation Cy5 FP general dual mirror, 620 excitation Cy5 FP filter, 688 emission (S) and a 688 (P) emission filter.
as §2

Structures are written as SMILES.

T1 sequence (O00763 whole entry V2141I): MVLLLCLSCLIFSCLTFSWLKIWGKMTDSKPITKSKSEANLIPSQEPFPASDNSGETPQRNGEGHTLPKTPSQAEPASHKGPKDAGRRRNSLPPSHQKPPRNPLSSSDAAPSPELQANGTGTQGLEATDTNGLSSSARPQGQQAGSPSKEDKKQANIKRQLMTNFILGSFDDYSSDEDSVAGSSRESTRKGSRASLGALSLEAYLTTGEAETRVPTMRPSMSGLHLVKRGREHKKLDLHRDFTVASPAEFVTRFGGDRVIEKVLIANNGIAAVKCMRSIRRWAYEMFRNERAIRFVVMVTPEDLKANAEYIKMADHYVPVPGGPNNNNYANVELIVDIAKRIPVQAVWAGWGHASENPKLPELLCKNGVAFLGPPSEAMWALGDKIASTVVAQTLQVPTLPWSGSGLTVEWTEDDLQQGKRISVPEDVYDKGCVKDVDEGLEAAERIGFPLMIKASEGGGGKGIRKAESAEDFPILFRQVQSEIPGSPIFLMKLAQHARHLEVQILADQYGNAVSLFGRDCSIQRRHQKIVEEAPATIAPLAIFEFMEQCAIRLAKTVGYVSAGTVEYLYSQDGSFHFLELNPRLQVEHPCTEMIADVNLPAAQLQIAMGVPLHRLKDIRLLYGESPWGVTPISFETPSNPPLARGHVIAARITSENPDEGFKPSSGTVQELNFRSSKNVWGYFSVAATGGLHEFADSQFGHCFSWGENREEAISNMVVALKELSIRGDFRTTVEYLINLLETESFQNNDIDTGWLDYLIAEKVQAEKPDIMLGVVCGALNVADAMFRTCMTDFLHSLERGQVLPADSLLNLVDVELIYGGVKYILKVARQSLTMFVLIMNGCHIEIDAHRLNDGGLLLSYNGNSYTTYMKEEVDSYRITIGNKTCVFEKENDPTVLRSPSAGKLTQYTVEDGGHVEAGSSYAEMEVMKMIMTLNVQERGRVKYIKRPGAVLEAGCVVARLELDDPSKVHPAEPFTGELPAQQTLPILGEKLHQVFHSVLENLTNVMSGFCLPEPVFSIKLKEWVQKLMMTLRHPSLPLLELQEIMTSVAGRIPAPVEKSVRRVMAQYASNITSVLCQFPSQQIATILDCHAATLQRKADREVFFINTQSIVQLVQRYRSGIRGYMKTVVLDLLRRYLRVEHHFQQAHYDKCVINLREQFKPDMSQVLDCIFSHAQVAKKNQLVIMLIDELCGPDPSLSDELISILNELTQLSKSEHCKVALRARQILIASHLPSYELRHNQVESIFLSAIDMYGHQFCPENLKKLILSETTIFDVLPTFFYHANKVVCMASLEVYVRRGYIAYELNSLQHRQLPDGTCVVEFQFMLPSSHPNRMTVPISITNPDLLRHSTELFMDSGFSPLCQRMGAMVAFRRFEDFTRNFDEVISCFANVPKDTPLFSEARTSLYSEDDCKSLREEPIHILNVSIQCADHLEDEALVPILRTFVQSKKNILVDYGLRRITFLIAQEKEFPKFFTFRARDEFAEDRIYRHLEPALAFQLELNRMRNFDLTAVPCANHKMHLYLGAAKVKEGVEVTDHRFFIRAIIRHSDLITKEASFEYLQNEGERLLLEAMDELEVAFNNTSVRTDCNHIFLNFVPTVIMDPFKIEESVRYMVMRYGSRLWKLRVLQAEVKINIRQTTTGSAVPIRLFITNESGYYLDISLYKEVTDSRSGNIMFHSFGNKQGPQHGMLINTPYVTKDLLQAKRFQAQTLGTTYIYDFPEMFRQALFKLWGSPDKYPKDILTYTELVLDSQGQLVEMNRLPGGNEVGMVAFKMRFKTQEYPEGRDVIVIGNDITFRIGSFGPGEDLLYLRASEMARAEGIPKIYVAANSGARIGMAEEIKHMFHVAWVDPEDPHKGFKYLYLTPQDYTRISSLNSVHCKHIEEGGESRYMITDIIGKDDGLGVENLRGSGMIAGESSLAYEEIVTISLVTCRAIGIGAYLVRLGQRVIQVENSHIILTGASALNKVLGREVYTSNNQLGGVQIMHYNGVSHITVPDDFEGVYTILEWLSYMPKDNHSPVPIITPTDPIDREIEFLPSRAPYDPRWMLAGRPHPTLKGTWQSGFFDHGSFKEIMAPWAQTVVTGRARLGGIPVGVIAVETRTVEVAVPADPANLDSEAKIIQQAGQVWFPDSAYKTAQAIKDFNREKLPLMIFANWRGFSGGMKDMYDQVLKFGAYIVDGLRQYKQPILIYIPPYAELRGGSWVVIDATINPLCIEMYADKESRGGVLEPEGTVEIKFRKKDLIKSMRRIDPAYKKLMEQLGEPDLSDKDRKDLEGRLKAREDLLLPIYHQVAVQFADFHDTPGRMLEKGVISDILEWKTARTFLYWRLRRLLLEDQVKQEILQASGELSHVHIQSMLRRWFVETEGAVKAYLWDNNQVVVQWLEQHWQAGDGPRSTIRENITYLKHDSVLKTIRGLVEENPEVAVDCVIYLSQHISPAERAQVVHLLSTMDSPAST

As to `CC(C)n1ncc2c1C(=O)CC1(CCN(C(=O)c3cnc4c(Cl)c[nH]c4c3)CC1)C2` [Example 16], the IC50 was 3.1 nM in test [1] and 6.7 nM in test [2].
As for `CC(C)n1ncc2c1C(=O)CC1(CCN(C(=O)c3cnc4[nH]nc(C(N)=O)c4c3)CC1)C2` [Example 18, 5-[(1-isopropyl-7-oxo-1,4,6,7-tetrahydro-1′H-spiro[indazole-5,4′-piperidin]-1′-yl)carbonyl]-1H-pyrazolo[3,4-b]pyridine-3-carboxamide], the IC50 was 22 nM in test [1] and 33 nM in test [2].
For the compound `CC(C)(C)n1cc2c(n1)C(=O)CC1(CCN(C(=O)c3ccc4[nH]c(N)nc4c3)CC1)C2` [Example 35], the concentration for half-maximal inhibition (IC50) in test [1] worked out at 1.4 nM; in test [2] it was 12 nM.
As to `CC(C)n1ncc2c1C(=O)CC1(CCN(C(=O)c3ccc4[nH]c(N)nc4c3)CC1)C2` [Example 8], the IC50 in test [1] was found to be 3.3 nM; in test [2], 17 nM.
In the same order, the values of `CC(C)n1ncc2c1C(=O)CC1(CCN(C(=O)c3cnc4c(C(N)=O)c[nH]c4c3)CC1)C2` [Example 3, 6-[(1-isopropyl-7-oxo-1,4,6,7-tetrahydro-1′H-spiro[indazole-5,4′-piperidin]-1′-yl)carbonyl]-1H-pyrrolo[3,2-b]pyridine-3-carboxamide] are 13 nM and 32 nM.
On the same counts, the results for `CC(C)(C)n1cc2c(n1)C(=O)CC1(CCN(C(=O)c3ccc4[nH]nc(C(=O)NCC(F)(F)F)c4c3)CC1)C2` [Example 38] are 1.1 nM and 4.3 nM.
In the same order, the values of `CNC(=O)c1n[nH]c2ccc(C(=O)N3CCC4(CC3)CC(=O)c3nn(C(C)(C)C)cc3C4)cc12` [Example 37] are 1.3 nM and 2.9 nM.
Consider `CC(C)(C)n1cc2c(n1)C(=O)CC1(CCN(C(=O)c3ccc4[nH]nc(C#N)c4c3)CC1)C2` [Example 43], for which the IC50 in test [1] worked out at 2.8 nM; in test [2], 6.4 nM.
Take `CNc1ccc2ccc(C(=O)N3CCC4(CC3)CC(=O)c3c(cnn3C(C)C)C4)cc2n1` [Example 13]: the IC50 in test [1] amounted to 1.5 nM; in test [2] it was 2.4 nM.
On the same counts, the results for `CC(C)n1ncc2c1C(=O)CC1(CCN(C(=O)c3ccc4[nH]nc(C(N)=O)c4c3)CC1)C2` [Example 2, 5-[(1-isopropyl-7-oxo-1,4,6,7-tetrahydro-1′H-spiro[indazole-5,4′-piperidin]-1′-yl)carbonyl]-1H-indazole-3-carboxamide] are 3.1 nM and 7.9 nM.
For the compound `CC(C)n1ncc2c1C(=O)CC1(CCN(C(=O)c3ccc4cc(C(N)=O)[nH]c4c3)CC1)C2` [Example 12], the 50% inhibitory concentration (IC50) was found to be 3 nM in test [1] and 13 nM in test [2].
In the case of `O=C1CC2(CCN(C(=O)c3ccc4[nH]ncc4c3)CC2)Cc2cn(C34CC(C3)C4)nc21` [Example 48, 2-bicyclo[1.1.1]pent-1-yl-1′-(1H-indazol-5-ylcarbonyl)-2,4-dihydrospiro[indazole-5,4′-piperidin]-7(6H)-one], the 50% inhibitory concentration (IC50) in test [1] was found to be 5.6 nM; in test [2], 32 nM.
Consider `CC(C)n1ncc2c1C(=O)CC1(CCN(C(=O)c3cnc4c(C#N)c[nH]c4c3)CC1)C2` [Example 23, 6-[(1-isopropyl-7-oxo-1,4,6,7-tetrahydro-1′H-spiro[indazole-5,4′-piperidin]-1′-yl)carbonyl]-1H-pyrrolo[3,2-b]pyridine-3-carbonitrile], for which the IC50 in test [1] stood at 15 nM; in test [2], 32 nM.
In the same order, the values of `CC(C)(C)n1cc2c(n1)C(=O)CC1(CCN(C(=O)c3ccc4cc(C(N)=O)[nH]c4c3)CC1)C2` [Example 34] are 2.8 nM and 8.1 nM.
Turning to `CCNC(=O)c1n[nH]c2ccc(C(=O)N3CCC4(CC3)CC(=O)c3c(cnn3C(C)C)C4)cc12` [Example 10], the IC50 in test [1] is 2.7 nM; in test [2] it was 6.1 nM.
As to `CC(C)n1ncc2c1C(=O)CC1(CCN(C(=O)c3ccc4c(C#N)n[nH]c4c3)CC1)C2` [Example 17], the figures for the IC50 in test [1] and in test [2] were 11 nM and 19 nM, respectively.
`COc1cc2cc(C(=O)N3CCC4(CC3)CC(=O)c3c(cnn3C(C)C)C4)cnc2cc1C(N)=O` [Example 22, 3-[(1-isopropyl-7-oxo-1,4,6,7-tetrahydro-1′H-spiro[indazole-5,4′-piperidin]-1′-yl)carbonyl]-6-methoxyquinoline-7-carboxamide]: the IC50 in test [1] is 6.9 nM; in test [2], 30 nM.
With `CC(C)(C)n1cc2c(n1)C(=O)CC1(CCN(C(=O)c3ccc4[nH]cc(C(N)=O)c4c3)CC1)C2` [Example 33], the results for the IC50 in test [1] and in test [2] were 1 nM and 3.1 nM, respectively.
On the same counts, the results for `NC(=O)c1n[nH]c2ccc(C(=O)N3CCC4(CC3)CC(=O)c3c(cnn3C35CC(C3)C5)C4)cc12` [Example 49, 5-[(1-bicyclo[1.1.1]pent-1-yl-7-oxo-1,4,6,7-tetrahydro-1′H-spiro[indazole-5,4′-piperidin]-1′-yl)carbonyl]-1H-indazole-3-carboxamide] are 8.4 nM and 12 nM.
In the case of `CCNC(=O)c1n[nH]c2ccc(C(=O)N3CCC4(CC3)CC(=O)c3nn(C(C)(C)C)cc3C4)cc12` [Example 36], the IC50 was 1.7 nM in test [1] and 4 nM in test [2].
On to `CNc1nc2cc(C(=O)N3CCC4(CC3)CC(=O)c3c(cnn3C(C)C)C4)ccc2[nH]1` [Example 20, 1-isopropyl-1′-{[2-(methylamino)-1H-benzimidazol-5-yl]carbonyl}-1,4-dihydrospiro[indazole-5,4′-piperidin]-7(6H)-one], for which the values for the IC50 in test [1] and in test [2] were 3 nM and 13 nM, respectively.
On the same counts, the results for `CC(C)n1ncc2c1C(=O)CC1(CCN(C(=O)c3ccc4[nH]c(C(N)=O)nc4c3)CC1)C2` [Example 21, 5-[(1-isopropyl-7-oxo-1,4,6,7-tetrahydro-1′H-spiro[indazole-5,4′-piperidin]-1′-yl)carbonyl]-1H-benzimidazole-2-carboxamide] are 6.7 nM and 47 nM.
Take `CNC(=O)c1n[nH]c2ccc(C(=O)N3CCC4(CC3)CC(=O)c3c(cnn3C(C)C)C4)cc12` [Example 9]: the IC50 in test [1] was 2.9 nM; in test [2], 8.4 nM.

For orientation: IC50 means the point on the concentration scale where inhibition reaches its midpoint.

The values are drawn from patent US8802688B2, “Substituted acetyl-coa carboxylase inhibitors” (Pfizer Inc., priority 2011, dated 2014).
